This passage reports Emax and EC50 results from US10738030B2, “Modulators of cystic fibrosis transmembrane conductance regulator” (Vertex Pharmaceuticals Incorporated, priority 2016, dated 2020).

The test addresses T1, F508del (Homo sapiens, UniProt P13569, DEL508-508).
T1 construct: expressed in transfected cells
Description: Membrane potential optical assay (FRET voltage-sensor dyes), identification of correction compounds. It is filed as cell-based. As to conditions: NIH3T3 cells stably expressing F508del, procedures described above; for Emax: maximum efficacy, read-out: Max Efficacy; for EC50: modulation of CFTR activity. The protocol:
(§1) NIH3T3 mouse fibroblasts stably expressing F508del are used for optical measurements of membrane potential. The cells are maintained at 37° C. in 5% CO2 and 90% humidity in Dulbecco's modified Eagle's medium supplemented with 2 mM glutamine, 10% fetal bovine serum, 1×NEAA, β-ME, 1× pen/strep, and 25 mM HEPES in 175 cm^2 culture flasks. For all optical assays, the cells were seeded at 12,000 cells/well in 384-well matrigel-coated plates and cultured for 18-24 hrs at 37° C. for the potentiator assay. For the correction assays, the cells are cultured at 37° C. with and without compounds for 18-24 hours.
Membrane potential optical methods for assaying F508del modulation properties of compounds.
The optical membrane potential assay utilized voltage-sensitive FRET sensors described by Gonzalez and Tsien (See Gonzalez, J. E. and R. Y. Tsien (1995) “Voltage sensing by fluorescence resonance energy transfer in single cells” Biophys J 69(4): 1272-80, and Gonzalez, J. E. and R. Y. Tsien (1997) “Improved indicators of cell membrane potential that use fluorescence resonance energy transfer” Chem Biol 4(4): 269-77) in combination with instrumentation for measuring fluorescence changes such as the Voltage/Ion Probe Reader (VIPR) (See, Gonzalez, J. E., K. Oades, et al. (1999) “Cell-based assays and instrumentation for screening ion-channel targets” Drug Discov Today 4(9): 431-439).
These voltage sensitive assays are based on the change in fluorescence resonant energy transfer (FRET) between the membrane-soluble, voltage-sensitive dye, DiSBAC2(3), and a fluorescent phospholipid, CC2-DMPE, which is attached to the outer leaflet of the plasma membrane and acts as a FRET donor. Changes in membrane potential (Vm) cause the negatively charged DiSBAC2(3) to redistribute across the plasma membrane and the amount of energy transfer from CC2-DMPE changes accordingly. The changes in fluorescence emission were monitored using VIPR™ II, which is an integrated liquid handler and fluorescent detector designed to conduct cell-based screens in 96- or 384-well microtiter plates.
To identify small molecules that correct the trafficking defect associated with F508del; a single-addition HTS assay format was developed. The cells were incubated in serum-free medium for 16 hrs at 37° C. in the presence or absence (negative control) of test compound. As a positive control, cells plated in 384-well plates were incubated for 16 hrs at 27° C. to “temperature-correct” F508del. The cells were subsequently rinsed 3× with Krebs Ringers solution and loaded with the voltage-sensitive dyes. To activate F508del, 10 μM forskolin and the CFTR potentiator, genistein (20 μM), were added along with Cl^−-free medium to each well. The addition of Cl^−-free medium promoted Cl^− efflux in response to F508del activation and the resulting membrane depolarization was optically monitored using the FRET-based voltage-sensor dyes.
• Bath Solution #1: (in mM) NaCl 160, KCl 4.5, CaCl2 2, MgCl2 1, HEPES 10, pH 7.4 with NaOH. • Chloride-free bath solution: Chloride salts in Bath Solution #1 (above) are substituted with gluconate salts. • CC2-DMPE: Prepared as a 10 mM stock solution in DMSO and stored at −20° C. • DiSBAC2(3): Prepared as a 10 mM stock in DMSO and stored at −20° C. Cell Culture
as §1, with “seeded at 30,000/well in 384-well” for “seeded at 12,000 cells/well in 384-well”, “cultured for 2 hrs at” for “cultured for 18-24 hrs at”, “37° C. before culturing at 27° C. for 24 hrs for the” for “37° C. for the”, “cultured at 27° C. or 37° C.” for “cultured at 37° C.”, “compounds for 16-24 hours.” for “compounds for 18-24 hours.”

T1 sequence (P13569 with tags, fused parts or gaps DEL508-508): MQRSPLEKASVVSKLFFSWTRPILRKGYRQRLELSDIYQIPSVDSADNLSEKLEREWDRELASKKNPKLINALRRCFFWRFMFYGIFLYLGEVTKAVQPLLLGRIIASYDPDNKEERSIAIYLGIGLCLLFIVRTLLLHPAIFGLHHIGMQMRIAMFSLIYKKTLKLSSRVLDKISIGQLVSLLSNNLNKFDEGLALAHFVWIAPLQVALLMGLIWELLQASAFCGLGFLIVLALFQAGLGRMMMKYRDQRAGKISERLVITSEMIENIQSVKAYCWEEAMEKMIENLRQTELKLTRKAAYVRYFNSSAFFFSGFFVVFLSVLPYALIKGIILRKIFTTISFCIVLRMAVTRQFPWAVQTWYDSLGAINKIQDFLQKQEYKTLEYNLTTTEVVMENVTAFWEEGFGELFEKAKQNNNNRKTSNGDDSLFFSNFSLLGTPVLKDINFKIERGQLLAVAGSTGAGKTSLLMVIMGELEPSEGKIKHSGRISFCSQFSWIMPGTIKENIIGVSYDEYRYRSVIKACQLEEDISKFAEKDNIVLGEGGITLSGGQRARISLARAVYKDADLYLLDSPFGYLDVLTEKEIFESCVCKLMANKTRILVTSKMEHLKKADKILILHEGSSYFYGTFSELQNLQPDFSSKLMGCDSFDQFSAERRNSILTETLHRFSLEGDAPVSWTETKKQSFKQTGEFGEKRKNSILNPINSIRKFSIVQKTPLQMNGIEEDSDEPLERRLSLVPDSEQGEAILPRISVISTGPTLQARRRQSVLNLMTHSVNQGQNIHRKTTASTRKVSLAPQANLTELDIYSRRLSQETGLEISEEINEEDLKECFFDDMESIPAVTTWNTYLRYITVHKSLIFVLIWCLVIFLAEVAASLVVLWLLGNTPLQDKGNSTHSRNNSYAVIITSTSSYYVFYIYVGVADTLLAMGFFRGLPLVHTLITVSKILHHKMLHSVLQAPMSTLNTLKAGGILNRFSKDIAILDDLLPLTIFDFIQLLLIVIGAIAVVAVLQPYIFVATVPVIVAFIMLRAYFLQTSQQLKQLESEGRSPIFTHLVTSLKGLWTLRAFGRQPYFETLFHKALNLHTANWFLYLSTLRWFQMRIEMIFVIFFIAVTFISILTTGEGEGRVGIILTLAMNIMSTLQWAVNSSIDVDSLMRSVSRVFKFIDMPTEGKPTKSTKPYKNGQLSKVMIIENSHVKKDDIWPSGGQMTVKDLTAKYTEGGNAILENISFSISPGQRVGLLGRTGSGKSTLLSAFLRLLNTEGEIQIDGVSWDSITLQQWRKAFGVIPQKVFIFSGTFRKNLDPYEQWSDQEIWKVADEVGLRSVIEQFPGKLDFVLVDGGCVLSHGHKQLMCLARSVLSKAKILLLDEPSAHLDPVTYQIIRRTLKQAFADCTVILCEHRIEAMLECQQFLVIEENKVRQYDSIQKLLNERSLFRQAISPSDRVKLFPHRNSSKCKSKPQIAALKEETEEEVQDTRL

Consider `CC(C)COc1cc(F)cc(-c2ccc(C(=O)NS(=O)(=O)c3cccc(N)n3)c(N(C)CC(F)F)n2)c1` [Compound 1, N-[(6-amino-2-pyridyl)sulfonyl]-2-[2,2-difluoroethyl(methyl)amino]-6-(3-fluoro-5-isobutoxy-phenyl)pyridine-3-carboxamide], for which the Emax is over 80% and the EC50 was under 3 µM.

For the molecule `CC(C)CCOc1nc(-c2cc(F)cc(OCC(C)C)c2)ccc1C(=O)NS(=O)(=O)c1cccc(N)n1` [Compound 2, N-[(6-amino-2-pyridyl)sulfonyl]-6-(3-fluoro-5-isobutoxy-phenyl)-2-isopentyloxy-pyridine-3-carboxamide], the Emax is over 80% and the EC50 was under 3 µM.

For the molecule `CC(C)COc1cc(F)cc(-c2ccc(C(=O)NS(=O)(=O)c3cccc(N)n3)c(OCCC(C)(C)C)n2)c1` [Compound 3, N-[(6-amino-2-pyridyl)sulfonyl]-2-(3,3-dimethylbutoxy)-6-(3-fluoro-5-isobutoxy-phenyl)pyridine-3-carboxamide], the Emax is over 80% and the concentration giving a half-maximal response (EC50) is under 3 µM.

With `CC(C)COc1cc(F)cc(-c2ccc(C(=O)NS(=O)(=O)c3cccc(N)n3)c(OCCOC(C)(C)C)n2)c1` [Compound 4, N-[(6-amino-2-pyridyl)sulfonyl]-2-(2-tert-butoxyethoxy)-6-(3-fluoro-5-isobutoxy-phenyl)pyridine-3-carboxamide], the Emax was 30 to 80% and the EC50 is under 3 µM.

Take `CC(C)COc1cc(F)cc(-c2ccc(C(=O)NS(=O)(=O)c3cccc(N)n3)c(OC(C)C)n2)c1` [Compound 5, N-[(6-amino-2-pyridyl)sulfonyl]-6-(3-fluoro-5-isobutoxy-phenyl)-2-isopropoxy-pyridine-3-carboxamide]: the Emax is over 80% and the EC50 was under 3 µM.

As to `CC(C)COc1cc(F)cc(-c2ccc(C(=O)NS(=O)(=O)c3cccc(N)n3)c(OC(C)C(F)(F)C(F)F)n2)c1` (stereo not shown) [Compound 6, N-[(6-amino-2-pyridyl)sulfonyl]-6-(3-fluoro-5-isobutoxy-phenyl)-2-(2,2,3,3-tetrafluoro-1-methyl-propoxy)pyridine-3-carboxamide], the Emax fell in the range of 30 to 80% and the concentration giving a half-maximal response (EC50) is under 3 µM.

Regarding `CC(C)COc1cc(F)cc(-c2ccc(C(=O)NS(=O)(=O)c3cccc(N)n3)c3nc(C(F)(F)F)cn23)c1` [Compound 7, N-[(6-amino-2-pyridyl)sulfonyl]-5-(3-fluoro-5-isobutoxy-phenyl)-2-(trifluoromethyl)imidazo[1,2-a]pyridine-8-carboxamide], the Emax fell in the range of 30 to 80% and the EC50 was under 3 µM.

Regarding `CCN(CC)c1nc(-c2ccc(OC(C)C)nc2)ccc1C(=O)NS(=O)(=O)c1cccc(N)n1` [Compound 8, N-((6-Aminopyridin-2-yl)sulfonyl)-6-(diethylamino)-6′-isopropoxy-[2,3′-bipyridine]-5-carboxamide], the Emax lay within 30 to 80% and the concentration for a half-maximal effect (EC50) is 3 to 10 µM.

In the case of `CC(C)COc1cc(F)cc(-c2ccc(C(=O)NS(=O)(=O)c3cccc(N)n3)c(OC(C)CC(F)(F)F)n2)c1` (stereo not shown) [Compound 9, N-[(6-amino-2-pyridyl)sulfonyl]-6-(3-fluoro-5-isobutoxy-phenyl)-2-(3,3,3-trifluoro-1-methyl-propoxy)pyridine-3-carboxamide], the Emax fell in the range of 30 to 80% and the EC50 is under 3 µM.

For the molecule `COc1nc(-c2cc(F)cc(OCC(C)C)c2)ccc1C(=O)NS(=O)(=O)c1cccc(N)n1` [Compound 10, N-[(6-amino-2-pyridyl)sulfonyl]-6-(3-fluoro-5-isobutoxy-phenyl)-2-methoxy-pyridine-3-carboxamide], the Emax lay within 30 to 80% and the EC50 is under 3 µM.

Consider `CCCCCOc1nc(-c2cc(F)cc(OCC(C)C)c2)ccc1C(=O)NS(=O)(=O)c1cccc(N)n1` [Compound 11, N-[(6-amino-2-pyridyl)sulfonyl]-6-(3-fluoro-5-isobutoxy-phenyl)-2-pentoxy-pyridine-3-carboxamide], for which the Emax is over 80% and the EC50 was under 3 µM.

For the molecule `CCC(C)C(C)Oc1nc(-c2cc(F)cc(OCC(C)C)c2)ccc1C(=O)NS(=O)(=O)c1cccc(N)n1` (stereo not shown) [Compound 12, N-[(6-amino-2-pyridyl)sulfonyl]-2-(1,2-dimethylbutoxy)-6-(3-fluoro-5-isobutoxy-phenyl)pyridine-3-carboxamide], the Emax is over 80% and the EC50 is under 3 µM.

Consider `CCOCCOc1nc(-c2cc(F)cc(OCC(C)C)c2)ccc1C(=O)NS(=O)(=O)c1cccc(N)n1` [Compound 13, N-[(6-amino-2-pyridyl)sulfonyl]-2-(2-ethoxyethoxy)-6-(3-fluoro-5-isobutoxy-phenyl)pyridine-3-carboxamide], for which the Emax fell in the range of 30 to 80% and the EC50 is under 3 µM.

Consider `CCN(c1nc(-c2ccc(OC(C)C)nc2)ccc1C(=O)NS(=O)(=O)c1cccc(N)n1)C(C)C` [Compound 14, N-[(6-amino-2-pyridyl)sulfonyl]-2-[ethyl(isopropyl)amino]-6-(6-isopropoxy-3-pyridyl)pyridine-3-carboxamide], for which the Emax was 30 to 80% and the concentration giving a half-maximal response (EC50) is under 3 µM.

`CC(C)(C)COc1nc(C(C)(C)C)ccc1C(=O)NS(=O)(=O)c1cccc(N)n1` [Compound 15, N-[(6-amino-2-pyridyl)sulfonyl]-6-tert-butyl-2-(2,2-dimethylpropoxy)pyridine-3-carboxamide]: the Emax was 30 to 80% and the half-maximal effective concentration (EC50) is under 3 µM.

In the case of `CCN(c1nc(-c2cc(F)cc(OCC(C)C)c2)ccc1C(=O)NS(=O)(=O)c1ccn[nH]1)C(C)C` [Compound 16, 2-[ethyl(isopropyl)amino]-6-(3-fluoro-5-isobutoxy-phenyl)-N-(1H-pyrazol-5-ylsulfonyl)pyridine-3-carboxamide], the Emax was over 80% and the EC50 was under 3 µM.

Regarding `CC(C)COc1cc(F)cc(-c2ccc(C(=O)NS(=O)(=O)c3cccc(N)n3)c(N(C)[C@@H](C)C(F)(F)F)n2)c1` [Compound 17, N-[(6-amino-2-pyridyl)sulfonyl]-6-(3-fluoro-5-isobutoxy-phenyl)-2-[methyl-[(1 S)-2,2,2-trifluoro-1-methyl-ethyl]amino]pyridine-3-carboxamide], the Emax was over 80% and the EC50 was under 3 µM.

For `CCC(COC)Oc1nc(-c2cc(F)cc(OCC(C)C)c2)ccc1C(=O)NS(=O)(=O)c1cccc(N)n1` (stereo not shown) [Compound 18, N-[(6-amino-2-pyridyl)sulfonyl]-6-(3-fluoro-5-isobutoxy-phenyl)-2-[1-(methoxymethyl)propoxy]pyridine-3-carboxamide], the Emax lay in the range of 30 to 80% and the EC50 is under 3 µM.

Consider `CC(C)COc1cc(F)cc(-c2ccc(C(=O)NS(=O)(=O)c3cccc(N)n3)c(N(C)C)n2)c1` [Compound 19, N-[(6-amino-2-pyridyl)sulfonyl]-2-(dimethylamino)-6-(3-fluoro-5-isobutoxy-phenyl)pyridine-3-carboxamide], for which the Emax was over 80% and the EC50 was under 3 µM.

As to `COC[C@H](C)Oc1nc(-c2cc(F)cc(OCC(C)C)c2)ccc1C(=O)NS(=O)(=O)c1cccc(N)n1` [Compound 20, N-[(6-amino-2-pyridyl)sulfonyl]-6-(3-fluoro-5-isobutoxy-phenyl)-2-[(1S)-2-methoxy-1-methyl-ethoxy]pyridine-3-carboxamide], the Emax lay within 30 to 80% and the EC50 was under 3 µM.

One may read the EC50 as the concentration at which the effect is half-maximal.
